Assay results as given in patent publication US10329272B2 (priority 2015, dated 2019).

Columns and labels:
[1] = tested on: Botryotinia fuckeliana (Botrytis cinerea); assay: Botryotinia fuckeliana (Botrytis cinerea)/Liquid Culture (Gray Mould); type: cell-based; conditions: liquid culture, growth inhibition photometrically 3-4 days after application, compared to untreated control
Method: Biological Examples Botryotinia fuckeliana (Botrytis cinerea)/Liquid Culture (Gray Mould)
(§1) Conidia of the fungus from cryogenic storage are directly mixed into nutrient broth (Vogels broth). After placing a (DMSO) solution of test compound into a microtiter plate (96-well format), the nutrient broth containing the fungal spores is added. The test plates are incubated at 24° C. and the inhibition of growth is determined photometrically 3-4 days after application.

[2] = tested on: Glomerella lagenarium (Colletotrichum lagenarium); assay: Glomerella Lagenarium (Colletotrichum Lagenarium)/Liquid Culture (Anthracnose); type: cell-based; conditions: Colletotrichum orbiculare, liquid culture, growth inhibition photometrically 3-4 days after application, compared to untreated control
Method: Glomerella Lagenarium (Colletotrichum Lagenarium)/Liquid Culture (Anthracnose)
as §1, with “(PDB potato dextrose” for “(Vogels”, “measured” for “determined”

Fusarium culmorum = assay: microbe, parasite or virus in culture; type: cell-based; conditions: read-out: control of Fusarium culmorum
Gaeumannomyces graminis = assay: Gaeumannomyces Graminis/Liquid Culture (Take-all of Cereals); type: cell-based; conditions: liquid culture, growth inhibition photometrically 4-5 days after application, compared to untreated control
Method: Gaeumannomyces Graminis/Liquid Culture (Take-all of Cereals)
as §1, with “Mycelial fragments of” for “Conidia of”, “storage were” for “storage are”, “broth (PDB potato dextrose” for “broth (Vogels”, “photometrically 4-5” for “photometrically 3-4”

[3] = tested on: Monographella nivalis (Microdochium nivale); assay: Monographella Nivalis (Microdochium Nivale)/Liquid Culture (Foot Rot Cereals); type: cell-based; conditions: liquid culture, growth inhibition photometrically 4-5 days after application, compared to untreated control
Method: Monographella Nivalis (Microdochium Nivale)/Liquid Culture (Foot Rot Cereals)
as §1, with “(PDB potato dextrose” for “(Vogels”, “4-5” for “3-4”

[4] = tested on: Mycosphaerella arachidis (Cercospora arachidicola); assay: Mycosphaerella arachidis (Cercospora arachidicola)/Liquid Culture (Early Leaf Spot); type: cell-based; conditions: 20 ppm; liquid culture, growth inhibition photometrically 4-5 days after application; compared to untreated control
Method: Mycosphaerella arachidis (Cercospora arachidicola)/Liquid Culture (Early Leaf Spot)
as §1, with “(PDB potato dextrose” for “(Vogels”, “4-5” for “3-4”

[5] = tested on: Magnaporthe grisea (Pyricularia oryzae); assay: microbe, parasite or virus in culture; type: cell-based; conditions: read-out: control of Magnaporthe grisea
[6] = tested on: Mycosphaerella graminicola (Septoria tritici); assay: microbe, parasite or virus in culture; type: cell-based; conditions: Zymoseptoria tritici, read-out: control of Mycosphaerella graminicola
Sclerotinia sclerotiorum = assay: Sclerotinia sclerotiorum/Liquid Culture (Cottony Rot); type: cell-based; conditions: liquid culture, growth inhibition photometrically 3-4 days after application, compared to untreated control
Method: Sclerotinia sclerotiorum/Liquid Culture (Cottony Rot)
as §1, with “Mycelia fragments of a newly grown liquid culture” for “Conidia”, “fungus” for “fungus from cryogenic storage”, “format)” for “format),”, “material” for “spores”

| SMILES | inhibition of growth at 20 ppm [1] [%] | inhibition of growth at 20 ppm [2] [%] | inhibition of growth at 20 ppm (Fusarium culmorum) [%] | inhibition of growth at 20 ppm (Gaeumannomyces graminis) [%] | inhibition of growth at 20 ppm [3] [%] | control of Mycosphaerella arachidis [4] | inhibition of growth at 20 ppm [5] [%] | inhibition of growth at 20 ppm [6] [%] | inhibition of growth at 20 ppm (Sclerotinia sclerotiorum) [%] | melting point [°C] |
| --- | --- | --- | --- | --- | --- | --- | --- | --- | --- | --- |
| Cn1nc2ccccc2c1C1=NC(C)(C)C(C)(C)c2c(F)cccc21 [Compound E-1, 5-fluoro-3,3,4,4-tetramethyl-1-(2-methylindazol-3-yl)isoquinoline] | ≥ 80 | ≥ 80 | ≥ 80 | ≥ 80 | ≥ 80 | at least 80% | ≥ 80 | ≥ 80 | ≥ 80 | 113 to 115 |
| Cc1cccc2c(C3=NC(C)(C)C(C)(C)c4c(F)cccc43)n(C)nc12 [Compound E-9, 1-(2,7-dimethylindazol-3-yl)-5-fluoro-3,3,4,4-tetramethyl-isoquinoline] | ≥ 80 | ≥ 80 | ≥ 80 | ≥ 80 | ≥ 80 | – | ≥ 80 | ≥ 80 | ≥ 80 | – |
| Cn1nc2c(Cl)cccc2c1C1=NC(C)(C)C(C)(C)c2c(F)cccc21 [Compound E-22, 1-(7-chloro-2-methyl-indazol-3-yl)-5-fluoro-3,3,4,4-tetramethyl-isoquinoline] | ≥ 80 | – | ≥ 80 | – | ≥ 80 | – | ≥ 80 | ≥ 80 | – | 45 to 47 |
| Cn1nc2c(Cl)c(Cl)ccc2c1C1=NC(C)(C)C(C)(C)c2c(F)cccc21 [Compound E-23, 1-(6,7-dichloro-2-methyl-indazol-3-yl)-5-fluoro-3,3,4,4-tetramethyl-isoquinoline] | ≥ 80 | ≥ 80 | – | ≥ 80 | ≥ 80 | – | ≥ 80 | ≥ 80 | ≥ 80 | – |
| Cc1ccc2c(C3=NC(C)(C)C(C)(C)c4c(F)cccc43)n(C)nc2c1Cl [Compound E-27, 1-(7-chloro-2,6-dimethyl-indazol-3-yl)-5-fluoro-3,3,4,4-tetramethyl-isoquinoline] | ≥ 80 | ≥ 80 | ≥ 80 | ≥ 80 | ≥ 80 | – | ≥ 80 | ≥ 80 | ≥ 80 | 113 to 116 |
| Cc1ccc2c(C3=NC(C)(C)C(C)(C)c4c(F)cccc43)n(C)nc2c1 [Compound E-28, 1-(2,6-dimethylindazol-3-yl)-5-fluoro-3,3,4,4-tetramethyl-isoquinoline] | ≥ 80 | ≥ 80 | ≥ 80 | ≥ 80 | ≥ 80 | – | ≥ 80 | ≥ 80 | ≥ 80 | 137 to 138 |
| Cc1ccc2c(C3=NC(C)(C)C(C)(C)c4c(F)cccc43)n(C)nc2c1C [Compound E-30, 5-fluoro-3,3,4,4-tetramethyl-1-(2,6,7-trimethylindazol-3-yl)isoquinoline] | ≥ 80 | ≥ 80 | – | – | ≥ 80 | – | ≥ 80 | ≥ 80 | ≥ 80 | 111 to 113 |
